Measurements published in patent publication US5126134A, “Pharmaceutically active combination” (Ciba-Geigy Corporation, priority 1988, dated 1992).

What was measured:
[1] = tested on: preformed non-radioactive thrombi in the jugular vein; assay: Rabbit jugular vein thrombosis model: inhibition of thrombus accretion during thrombolysis with t-PA; assay type: in vivo, New Zealand white rabbits
Description: The experiments are performed with New Zealand white rabbits (weighing 2.3-3.5 kg) anaesthesized by intravenous (marginal ear vein) injection of 30 mg/kg sodium pentobarbital. Through a paramedical incision of the neck, the jugular veins and the right carotid artery are exposed. The right carotid artery is cannulated with a 1.5 mm diameter polyethylene cannula for blood sampling. The two jugular veins are isolated, cleared over a distance of 2 cm, small side branches are ligated. Each jugular segment is emptied of blood and blood flow is temporarily occluded both proximally and distally by two angiostaths, 1.5 cm apart. A 10 cm length 3.0 TiCron braided polyester suture, presoaked in a collagen solution, is introduced lengthwise in the lumen of the isolated jugular vein for a distance of 4 cm to avoid the embolization of the thrombus to be produced. […] The effects of standard heparin and recombinant desulfato hirudin in preventing thrombus extension during thrombolysis with t-PA are assessed as their ability to inhibit the accretion of ^125 I-fibrinogen onto autologous non-radioactive thrombi preformed in the jugular vein of rabbits. […] The ratio of the radioactivity of the thrombus to the circulating fibrinogen radioactivity is used to quantify thrombus size, which is then expressed as μg or ^125 I-fibrinogen accreted onto the thrombus.

[2] = tested on: activated partial thromboplastin time; assay: aPTT prolongation in control experiments (rabbit model); assay type: in vivo, New Zealand white rabbits; conditions: heparin 0.75 mg/kg, hirudin 1 mg/kg
Description: Intravenous infusions are carried out by using a constant rate infusion pump. t-PA derived from melanoma cell cultures is obtained from BioResponse, USA. A total dose of 0.5 mg t-PA is infused through the marginal ear vein over a period of 3 hours. Along with t-PA either saline, standard heparin (KabiVitrum, Sweden, 140 USP/mg; 0.75 mg/kg) or hirudin (1 mg/kg) are infused. Doses of heparin and hirudin are used which give in control experiments the same prolongation in aPTT (activated partial thromboplastin time), e.g. times two.

[3] = tested on: coagulation (clotting time, aPTT) of citrated plasma; assay: In vitro clot lysis / coagulation in citrated plasma with t-PA; assay type: biochemical, Human; conditions: for concentration leading to the same prolongation of aPTT (equipotent concentration): human citrated plasma
Description: Human blood is directly withdrawn into 3.8% sodium citrate solution (ratio blood/citrate solution 9:1). The mixture is centrifuged at 1,000 rpm for 10 min to yield citrated plasma.
A mixture consisting of 150 μl citrated plasma 125 μl 0.9% sodium chloride solution 100 μl desulfato hirudin HV1 or MCI-9038 (see below) in 0.9% sodium chloride is prepared directly in 1 ml cuvettes equilibrated at 37° C. The mixture is incubated for 15 min at 37° C. Then, 25 μl of a 1 μg/ml t-PA stock solution (American Diagnostica, New York) and 300 μl 0.0025M calcium chloride solution are added to start coagulation.
The change in the optical density (coagulation) is continuously measured at 608 nm in a Uvikon 810 P spectrophotometer equipped with a kinetic program.
The time (in minutes) from addition of the CaCl2 solution to a change in absorbance greater than 0.025 is defined as the coagulation time. The clot lysis time (in minutes) is defined as the time from the beginning of the clotting to the time at which the absorbance decreased to 10% of the maximum absorbance.
The thrombin inhibitor MCI-9038 [(2R,4R)-4-methyl-1-[N^2 -[(3-methyl-1,2,3,4-tetrahydro-8-quinolyl)-sulfonyl]-L-arginyl]-2-piperidinecarboxylic acid] is chemically synthesized as described in S. Okamoto et al., Biochem. Biophys. Res. Commun. 101, 440-446 (1981). It is used at the following end concentrations: 0.07, 0.14, 0.28, 0.56 and 1.1 μM. The desulfato hirudin used has been prepared by recombinant DNA technology using transformed yeast according to the procedure described in European Patent Application No. 225,633. It is used at the following end concentrations: 0.8, 1.6, 3.2, 8 and 16 nM. The concentrations chosen of MCI-9038 and desulfato hirudin are equipotent concentrations in terms of prolongation of clotting time (coagulation), e.g. 1.2 μM MCl-9038 and 16 nM desulfato hirudin lead to the same prolongation of aPTT.

| Molecule | effect on thrombus accretion during t-PA thrombolysis ([1]; FIG. 1, infused along with t-PA, heparin 0.75 mg/kg, desulfato hirudin 1 mg/kg) | effect on thrombus accretion with increasing concentrations ([1]; FIG. 2, t-PA with various concentrations of desulfato hirudin) | prolongation in aPTT [2] | concentration leading to the same prolongation of aPTT (equipotent concentration) ([3]; equipotent with 1.2 μM MCI-9038) | concentration leading to the same prolongation of aPTT (equipotent concentration) ([3]; equipotent with 16 nM desulfato hirudin) | concentration needed to achieve the same effect as a given concentration of desulfato hirudin ([3]; relative to desulfato hirudin, in vitro clot lysis) |
| --- | --- | --- | --- | --- | --- | --- |
| desulfato hirudin HV1 | clear reduction in thrombus accretion | this effect can even be potentiated | times two | 16 nM |  |  |
| CC1CNc2c(cccc2S(=O)(=O)N[C@@H](CCCNC(=N)N)C(=O)N2CC[C@@H](C)C[C@@H]2C(=O)O)C1 (stereo partly drawn) [MCI-9038, (2R,4R)-4-methyl-1-[N^2-[(3-methyl-1,2,3,4-tetrahydro-8-quinolyl)-sulfonyl]-L-arginyl]-2-piperidinecarboxylic acid] |  |  |  |  | 1200 nM | twenty-fold |
